Test results: ChEMBL document CHEMBL1138125, “A new chemical tool for exploring the role of the PDE4D isozyme in leukocyte function” (Bioorg Med Chem Lett, 2006)

How the values were obtained:
[1] = target: 3',5'-cyclic-AMP phosphodiesterase 4C (Homo sapiens, UniProt Q08493); experiment: Inhibition of PDE4C
[2] = target: Histamine H1 receptor (Homo sapiens) (UniProt P35367); experiment: Binding affinity to Histamine H1 receptor at 10 uM
[3] = target: T1, Voltage-gated L-type calcium channel (Homo sapiens, UniProt Q13936+Q13698+Q01668+O60840); experiment: Binding affinity to verapamil sensitive calcium channel L type at 10 uM; assay type: protein assay
[4] = target: Type-1 angiotensin II receptor (Homo sapiens) (UniProt P30556); experiment: Binding affinity to angiotensin II receptor type 1 at 10 uM
[5] = target: Histamine H2 receptor (Homo sapiens) (UniProt P25021); experiment: Binding affinity to Histamine H2 receptor at 10 uM
[6] = target: Vasopressin V1 receptor (Homo sapiens) (UniProt P37288+P47901); experiment: Binding affinity to vasopressin V1 receptor at 10 uM; assay type: protein assay
[7] = target: 5-hydroxytryptamine receptor 1A (Homo sapiens) (UniProt P08908); experiment: Binding affinity to serotonin 5HT1A receptor at 10 uM
[8] = target: Serotonin 3 (5-HT3) receptor (Homo sapiens) (UniProt P46098+A5X5Y0+O95264+Q70Z44+Q8WXA8); experiment: Binding affinity to serotonin 5HT3 receptor at 10 uM; assay type: protein-complex assay
[9] = target: High affinity cGMP-specific 3',5'-cyclic phosphodiesterase 9A (Homo sapiens, UniProt O76083); experiment: Inhibition of PDE9
[10] = target: Histamine H3 receptor (Homo sapiens) (UniProt Q9Y5N1); experiment: Binding affinity to Histamine H3 receptor at 10 uM
[11] = target: D(2) dopamine receptor (Homo sapiens) (UniProt P14416); experiment: Binding affinity to dopamine D2 receptor at 10 uM
[12] = target: High affinity choline transporter 1 (Homo sapiens) (UniProt Q9GZV3); experiment: Binding affinity to choline transporter at 10 uM
[13] = target: Voltage-dependent N-type calcium channel subunit alpha-1B (Homo sapiens) (UniProt Q00975); experiment: Binding affinity to calcium channel N type at 10 uM
[14] = target: Type-2 angiotensin II receptor (Homo sapiens) (UniProt P50052); experiment: Binding affinity to angiotensin II receptor type 2 at 10 uM
[15] = target: Platelet-activating factor receptor (Homo sapiens) (UniProt P25105); experiment: Binding affinity to platelet activating factor at 10 uM
[16] = target: Kappa-type opioid receptor (Homo sapiens) (UniProt P41145); experiment: Binding affinity to opiate kappa receptor at 10 uM
[17] = target: 5-hydroxytryptamine receptor 4 (Homo sapiens) (UniProt Q13639); experiment: Binding affinity to serotonin 5HT4 receptor at 10 uM
[18] = target: Beta-1 adrenergic receptor (Homo sapiens) (UniProt P08588); experiment: Binding affinity to adrenergic beta-1 receptor at 10 uM
[19] = target: T2, 3',5'-cyclic-AMP phosphodiesterase 4D (Homo sapiens, UniProt Q08499); experiment: Inhibition of PDE4D
[20] = target: D(3) dopamine receptor (Homo sapiens) (UniProt P35462); experiment: Binding affinity to dopamine D3 receptor at 10 uM
[21] = Binding affinity to nicotinic neuronal receptor at 10 uM
[22] = target: Substance-P receptor (Homo sapiens) (UniProt P25103); experiment: Binding affinity to neurokinin K1 receptor at 10 uM
[23] = target: Adrenergic receptor alpha-2 (Homo sapiens) (UniProt P08913+P18825+P18089); experiment: Binding affinity to Adrenergic alpha-2 receptor at 10 uM; assay type: protein assay
[24] = target: Mu-type opioid receptor (Homo sapiens) (UniProt P35372); experiment: Binding affinity to opiate mu receptor at 10 uM
[25] = target: Adenosine receptor A2a (Homo sapiens) (UniProt P29274); experiment: Binding affinity to adenosine A2A receptor at 10 uM
[26] = target: D(4) dopamine receptor (Homo sapiens) (UniProt P21917); experiment: Binding affinity to dopamine D4 receptor at 10 uM
[27] = target: cGMP-dependent 3',5'-cyclic phosphodiesterase (Homo sapiens, UniProt O00408); experiment: Inhibition of PDE2
[28] = target: Acetylcholine receptor; alpha1/beta1/delta/gamma (Homo sapiens) (UniProt P02708+P07510+P11230+Q07001); experiment: Binding affinity to nicotinic muscle receptor at 10 uM; assay type: protein-complex assay
[29] = target: Thyroid hormone receptor (Homo sapiens) (UniProt P10827+P10828); experiment: Binding affinity to thyroid hormone receptor at 10 uM; assay type: protein-complex assay
[30] = target: Adenosine receptor A3 (Homo sapiens) (UniProt P0DMS8); experiment: Binding affinity to adenosine A3 receptor at 10 uM
[31] = target: T2, 3',5'-cyclic-AMP phosphodiesterase 4D; conditions: Blood
Description: Inhibition of release of Eosinophil derived neurotoxin in human whole blood

[32] = target: Adrenergic receptor alpha-1 (Homo sapiens) (UniProt P35348+P25100+P35368); experiment: Binding affinity to Adrenergic alpha-1 receptor at 10 uM; assay type: protein assay
[33] = target: Glutamate receptor ionotropic kainate (Homo sapiens) (UniProt P39086+Q16478+Q16099+Q13002+Q13003); experiment: Binding affinity to kainate receptor at 10 uM; assay type: protein-complex assay
[34] = target: 3',5'-cyclic-AMP phosphodiesterase 4A (Homo sapiens, UniProt P27815); experiment: Inhibition of PDE4A
[35] = target: 5-hydroxytryptamine receptor 7 (Homo sapiens) (UniProt P34969); experiment: Binding affinity to serotonin 5HT7 receptor at 10 uM
[36] = target: High affinity cAMP-specific and IBMX-insensitive 3',5'-cyclic phosphodiesterase 8B (Homo sapiens, UniProt O95263); experiment: Inhibition of PDE8B
[37] = target: Delta-type opioid receptor (Homo sapiens) (UniProt P41143); experiment: Binding affinity to opiate delta receptor at 10 uM
[38] = target: Melanocortin receptor 4 (Homo sapiens) (UniProt P32245); experiment: Binding affinity to MCR4 at 10 uM
[39] = target: Vasopressin V2 receptor (Homo sapiens) (UniProt P30518); experiment: Binding affinity to vasopressin V2 receptor at 10 uM
[40] = target: T2, 3',5'-cyclic-AMP phosphodiesterase 4D; experiment: Inhibition of release of LTE4 in human whole blood; assay type: functional, tissue-based
Phosphodiesterase 3 = Phosphodiesterase 3 (Homo sapiens, UniProt Q14432+Q13370); experiment: Inhibition of PDE3; assay type: protein assay
[41] = target: Beta-2 adrenergic receptor (Homo sapiens) (UniProt P07550); experiment: Binding affinity to adrenergic beta2 receptor at 10 uM
[42] = target: Muscarinic acetylcholine receptor M2 (Homo sapiens) (UniProt P08172); experiment: Binding affinity to Muscarinic M2 receptor at 10 uM
[43] = target: T1, Voltage-gated L-type calcium channel; experiment: Binding affinity to dilitiazem sensitive calcium channel L type at 10 uM; assay type: protein assay
Cynomolgus monkey = experiment: Inhibition of eosinophil infiltration in bronchoalveolar lavage fluid from cynomolgus monkeys exposed to Ascaris suum.; assay type: functional, Macaca fascicularis, Lung
[44] = Binding affinity to GABA transporter at 10 uM
[45] = target: Muscarinic acetylcholine receptor M4 (Homo sapiens) (UniProt P08173); experiment: Binding affinity to Muscarinic M4 receptor at 10 uM
[46] = target: D(1A) dopamine receptor (Homo sapiens) (UniProt P21728); experiment: Binding affinity to dopamine D1 receptor at 10 uM
[47] = target: Sodium-dependent noradrenaline transporter (Homo sapiens) (UniProt P23975); experiment: Binding affinity to norepinephrine transporter at 10 uM
[48] = target: B2 bradykinin receptor (Homo sapiens) (UniProt P30411); experiment: Binding affinity to bradykinin B2 receptor at 10 uM
[49] = target: Muscarinic acetylcholine receptor M1 (Homo sapiens) (UniProt P11229); experiment: Binding affinity to Muscarinic M1 receptor at 10 uM
[50] = target: Adenosine receptor A1 (Homo sapiens) (UniProt P30542); experiment: Binding affinity to adenosine A1 receptor at 10 uM
[51] = target: Sodium-dependent dopamine transporter (Homo sapiens) (UniProt Q01959); experiment: Binding affinity to dopamine transporter at 10 uM
[52] = target: cGMP-specific 3',5'-cyclic phosphodiesterase (Homo sapiens, UniProt O76074); experiment: Inhibition of PDE5
[53] = Binding affinity to GABA receptor at 10 uM
[54] = target: High affinity cAMP-specific and IBMX-insensitive 3',5'-cyclic phosphodiesterase 8A (Homo sapiens, UniProt O60658); experiment: Inhibition of PDE8A
[55] = target: Glutamate [NMDA] receptor (Homo sapiens) (UniProt Q05586+Q12879+Q13224+O15399+O60391+Q14957+Q8TCU5); experiment: Binding affinity to NMDA receptor at 10 uM; assay type: protein-complex assay
[56] = target: T3, 3',5'-cyclic-AMP phosphodiesterase 4B (Homo sapiens, UniProt Q07343); experiment: Inhibition of PDE4B
[57] = target: Sodium-dependent serotonin transporter (Homo sapiens) (UniProt P31645); experiment: Binding affinity to serotonin transporter at 10 uM
[58] = target: T2, 3',5'-cyclic-AMP phosphodiesterase 4D; experiment: cAMP elevation in U937 cells; assay type: functional, cell-based, U-937
[59] = target: cAMP and cAMP-inhibited cGMP 3',5'-cyclic phosphodiesterase 10A (Homo sapiens, UniProt Q9Y233); experiment: Inhibition of PDE10
[60] = target: Muscarinic acetylcholine receptor M3 (Homo sapiens) (UniProt P20309); experiment: Binding affinity to Muscarinic M3 receptor at 10 uM
[61] = target: T3, 3',5'-cyclic-AMP phosphodiesterase 4B; experiment: Inhibition of release of TNF alpha in human whole blood; assay type: functional, tissue-based
[62] = target: B1 bradykinin receptor (Homo sapiens) (UniProt P46663); experiment: Binding affinity to bradykinin B1 receptor at 10 uM
[63] = target: Glutamate receptor ionotropic AMPA (Homo sapiens) (UniProt P48058+P42263+P42262+P42261); experiment: Binding affinity to AMPA receptor at 10 uM; assay type: protein-complex assay
[64] = target: Glucocorticoid receptor (Homo sapiens) (UniProt P04150); experiment: Binding affinity to glucocorticoid receptor at 10 uM
[65] = target: T1, Voltage-gated L-type calcium channel; experiment: Binding affinity to DHP sensitive calcium channel L type at 10 uM; assay type: protein assay

T2 sequence (Q08499 whole entry): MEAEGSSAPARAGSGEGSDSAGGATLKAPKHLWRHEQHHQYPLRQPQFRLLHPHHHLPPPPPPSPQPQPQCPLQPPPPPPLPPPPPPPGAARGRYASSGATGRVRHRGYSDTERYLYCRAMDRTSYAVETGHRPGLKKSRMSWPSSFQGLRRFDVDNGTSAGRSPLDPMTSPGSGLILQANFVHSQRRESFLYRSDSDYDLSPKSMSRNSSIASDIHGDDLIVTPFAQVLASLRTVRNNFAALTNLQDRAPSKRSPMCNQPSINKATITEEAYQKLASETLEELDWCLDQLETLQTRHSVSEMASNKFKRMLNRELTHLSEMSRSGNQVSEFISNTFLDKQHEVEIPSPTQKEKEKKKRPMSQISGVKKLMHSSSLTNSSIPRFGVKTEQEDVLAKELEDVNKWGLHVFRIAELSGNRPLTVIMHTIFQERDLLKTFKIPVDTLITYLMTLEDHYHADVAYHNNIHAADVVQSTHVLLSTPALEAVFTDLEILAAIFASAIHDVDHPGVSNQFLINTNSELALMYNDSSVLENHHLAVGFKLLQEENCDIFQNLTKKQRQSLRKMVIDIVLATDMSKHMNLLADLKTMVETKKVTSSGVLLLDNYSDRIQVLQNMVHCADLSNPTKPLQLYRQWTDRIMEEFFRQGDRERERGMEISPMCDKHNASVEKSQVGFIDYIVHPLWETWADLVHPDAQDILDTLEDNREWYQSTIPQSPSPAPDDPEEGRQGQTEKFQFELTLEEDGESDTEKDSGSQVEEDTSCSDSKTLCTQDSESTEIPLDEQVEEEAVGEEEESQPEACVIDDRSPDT
T3 sequence (Q07343 whole entry): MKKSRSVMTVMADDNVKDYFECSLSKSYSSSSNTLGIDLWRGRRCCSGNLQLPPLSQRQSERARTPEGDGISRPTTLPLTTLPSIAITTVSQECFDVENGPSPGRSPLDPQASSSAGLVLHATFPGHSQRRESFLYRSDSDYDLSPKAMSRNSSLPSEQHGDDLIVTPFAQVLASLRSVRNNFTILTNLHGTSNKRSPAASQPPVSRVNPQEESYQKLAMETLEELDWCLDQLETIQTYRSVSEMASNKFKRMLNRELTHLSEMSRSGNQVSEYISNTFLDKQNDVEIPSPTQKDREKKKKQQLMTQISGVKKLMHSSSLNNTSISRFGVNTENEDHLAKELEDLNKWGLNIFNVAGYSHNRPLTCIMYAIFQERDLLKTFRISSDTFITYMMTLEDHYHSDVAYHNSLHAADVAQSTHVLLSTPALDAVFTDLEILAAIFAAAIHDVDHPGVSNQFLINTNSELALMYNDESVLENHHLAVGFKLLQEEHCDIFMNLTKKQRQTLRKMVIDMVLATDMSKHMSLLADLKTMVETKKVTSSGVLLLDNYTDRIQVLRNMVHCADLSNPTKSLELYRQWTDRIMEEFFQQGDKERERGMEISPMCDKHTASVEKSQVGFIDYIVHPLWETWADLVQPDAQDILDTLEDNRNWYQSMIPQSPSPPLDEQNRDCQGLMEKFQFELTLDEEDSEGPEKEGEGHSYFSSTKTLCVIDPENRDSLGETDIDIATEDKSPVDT
Chain of Beta-1 adrenergic receptor (Homo sapiens) (P08588 whole entry, looked up): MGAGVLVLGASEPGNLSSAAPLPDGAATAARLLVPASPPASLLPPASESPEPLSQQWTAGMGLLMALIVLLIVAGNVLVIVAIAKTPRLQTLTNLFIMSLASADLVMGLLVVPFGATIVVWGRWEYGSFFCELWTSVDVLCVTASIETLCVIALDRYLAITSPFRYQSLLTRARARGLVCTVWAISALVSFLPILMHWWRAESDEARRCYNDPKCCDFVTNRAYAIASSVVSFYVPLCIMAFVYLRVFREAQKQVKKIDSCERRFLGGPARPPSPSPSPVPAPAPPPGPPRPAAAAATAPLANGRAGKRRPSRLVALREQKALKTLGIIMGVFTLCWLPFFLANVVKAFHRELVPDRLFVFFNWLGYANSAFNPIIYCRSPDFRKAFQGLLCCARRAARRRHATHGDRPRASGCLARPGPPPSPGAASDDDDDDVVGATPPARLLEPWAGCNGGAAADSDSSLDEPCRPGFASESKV
Chain of Delta-type opioid receptor (Homo sapiens) (P41143 whole entry): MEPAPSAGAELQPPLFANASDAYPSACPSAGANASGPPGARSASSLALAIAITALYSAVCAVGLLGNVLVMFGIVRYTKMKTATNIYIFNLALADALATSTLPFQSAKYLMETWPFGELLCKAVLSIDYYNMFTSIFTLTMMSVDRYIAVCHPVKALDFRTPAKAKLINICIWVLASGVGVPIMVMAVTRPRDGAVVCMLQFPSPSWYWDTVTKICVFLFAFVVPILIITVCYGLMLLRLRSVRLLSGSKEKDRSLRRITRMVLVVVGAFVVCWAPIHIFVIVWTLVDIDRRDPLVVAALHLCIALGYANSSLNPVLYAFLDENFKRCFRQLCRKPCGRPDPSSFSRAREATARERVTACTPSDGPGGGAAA
Chain of 5-hydroxytryptamine receptor 1A (Homo sapiens) (P08908 whole entry): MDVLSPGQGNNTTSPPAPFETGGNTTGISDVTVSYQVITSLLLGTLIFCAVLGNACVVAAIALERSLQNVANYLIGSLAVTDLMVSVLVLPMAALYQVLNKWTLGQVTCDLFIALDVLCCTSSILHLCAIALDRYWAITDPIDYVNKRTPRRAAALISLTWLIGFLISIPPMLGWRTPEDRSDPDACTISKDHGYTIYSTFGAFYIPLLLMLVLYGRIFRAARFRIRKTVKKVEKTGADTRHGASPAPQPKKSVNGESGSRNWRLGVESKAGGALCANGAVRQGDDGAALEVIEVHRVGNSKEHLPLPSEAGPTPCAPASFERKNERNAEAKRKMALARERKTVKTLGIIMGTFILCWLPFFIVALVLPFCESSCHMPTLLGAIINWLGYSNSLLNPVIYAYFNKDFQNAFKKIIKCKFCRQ
Chain of Beta-2 adrenergic receptor (Homo sapiens) (P07550 whole entry, looked up): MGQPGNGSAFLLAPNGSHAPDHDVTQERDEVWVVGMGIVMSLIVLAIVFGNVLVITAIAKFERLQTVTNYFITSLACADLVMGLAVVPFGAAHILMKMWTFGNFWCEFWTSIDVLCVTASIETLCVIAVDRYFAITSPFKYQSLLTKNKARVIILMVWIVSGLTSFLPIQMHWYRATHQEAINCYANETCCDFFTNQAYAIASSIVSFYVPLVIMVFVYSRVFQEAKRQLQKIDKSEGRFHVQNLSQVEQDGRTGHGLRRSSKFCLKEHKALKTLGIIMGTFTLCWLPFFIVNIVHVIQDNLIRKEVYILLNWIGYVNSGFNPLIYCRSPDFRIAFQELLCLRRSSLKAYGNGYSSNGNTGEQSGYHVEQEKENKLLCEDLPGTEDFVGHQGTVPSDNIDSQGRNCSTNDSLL
Chain of D(4) dopamine receptor (Homo sapiens) (P21917 whole entry): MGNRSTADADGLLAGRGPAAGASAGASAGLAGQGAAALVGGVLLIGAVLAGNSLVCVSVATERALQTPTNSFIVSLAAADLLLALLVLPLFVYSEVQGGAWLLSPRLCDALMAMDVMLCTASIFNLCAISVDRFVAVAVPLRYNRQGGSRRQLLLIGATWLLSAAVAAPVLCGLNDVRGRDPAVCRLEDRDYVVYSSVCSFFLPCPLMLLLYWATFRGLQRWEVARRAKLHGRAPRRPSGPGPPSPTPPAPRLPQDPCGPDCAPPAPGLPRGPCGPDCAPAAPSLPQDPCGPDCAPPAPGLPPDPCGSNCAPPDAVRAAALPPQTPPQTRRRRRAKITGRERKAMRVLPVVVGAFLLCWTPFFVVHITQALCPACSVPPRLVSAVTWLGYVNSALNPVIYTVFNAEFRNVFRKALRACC
Chain of Muscarinic acetylcholine receptor M4 (Homo sapiens) (P08173 whole entry): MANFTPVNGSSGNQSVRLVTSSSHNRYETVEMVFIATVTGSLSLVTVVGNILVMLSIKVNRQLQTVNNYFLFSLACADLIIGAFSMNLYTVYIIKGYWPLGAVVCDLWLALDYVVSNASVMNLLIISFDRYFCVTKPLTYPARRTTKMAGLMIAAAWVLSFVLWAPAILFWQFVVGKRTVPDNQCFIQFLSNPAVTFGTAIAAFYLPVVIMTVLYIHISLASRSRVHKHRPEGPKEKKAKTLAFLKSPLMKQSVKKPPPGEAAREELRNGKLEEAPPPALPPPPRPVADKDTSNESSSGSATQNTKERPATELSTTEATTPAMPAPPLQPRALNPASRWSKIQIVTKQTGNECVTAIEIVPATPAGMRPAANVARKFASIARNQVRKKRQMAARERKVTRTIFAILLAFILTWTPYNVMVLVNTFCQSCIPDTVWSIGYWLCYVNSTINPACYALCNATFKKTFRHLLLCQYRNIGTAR
Chain of B1 bradykinin receptor (Homo sapiens) (P46663 whole entry): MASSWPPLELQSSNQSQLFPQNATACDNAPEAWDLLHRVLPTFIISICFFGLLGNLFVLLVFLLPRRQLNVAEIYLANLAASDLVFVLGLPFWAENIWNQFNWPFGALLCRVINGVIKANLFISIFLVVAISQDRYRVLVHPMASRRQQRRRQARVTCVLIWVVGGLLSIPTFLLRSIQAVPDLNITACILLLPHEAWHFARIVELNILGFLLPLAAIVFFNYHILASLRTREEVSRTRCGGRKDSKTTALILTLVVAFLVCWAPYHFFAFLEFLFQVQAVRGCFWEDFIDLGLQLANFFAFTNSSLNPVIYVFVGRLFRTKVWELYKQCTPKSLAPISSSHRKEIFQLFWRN
Chain of Adenosine receptor A3 (Homo sapiens) (P0DMS8 whole entry): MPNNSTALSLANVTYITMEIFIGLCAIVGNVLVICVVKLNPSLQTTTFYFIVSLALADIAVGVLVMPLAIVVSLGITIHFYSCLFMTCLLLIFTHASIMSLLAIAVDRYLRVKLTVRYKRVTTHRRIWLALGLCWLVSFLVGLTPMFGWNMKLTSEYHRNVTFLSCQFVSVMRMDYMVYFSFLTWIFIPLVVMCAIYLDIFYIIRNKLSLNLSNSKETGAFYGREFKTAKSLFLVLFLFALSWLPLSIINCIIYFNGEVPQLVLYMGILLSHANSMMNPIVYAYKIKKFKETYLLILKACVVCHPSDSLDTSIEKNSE

## C[C@@H](NC(=O)c1cccnc1Oc1ccc(F)cc1)c1cccs1
[1]
  IC50: 1380 nM
[2]
  Activity: 4%
[3]
  Activity: 0%
[4]
  Activity: 3%
[5]
  Activity: 0%
[6]
  Activity: 26%
[7]
  Activity: 5%
[8]
  Activity: 4%
[9]
  IC50: > 16000 nM
[10]
  Activity: 0%
[11]
  Activity: 0%
[12]
  Activity: 60%
[13]
  Activity: 0%
[14]
  Activity: 0%
[15]
  Activity: 23%
[16]
  Activity: 21%
[17]
  Activity: 14%
[18]
  Activity: 12%
[19]
  IC50: 4 nM
[20]
  Activity: 0%
[21]
  Activity: 3%
[22]
  Activity: 27%
[23]
  Activity: 0%
[24]
  Activity: 15%
[25]
  Activity: 23%
[26]
  Activity: 9%
[27]
  IC50: > 16000 nM
[28]
  Activity: 22%
[29]
  Activity: 8%
[30]
  Activity: 31%
[31]
  IC30: 16 nM
[32]
  Activity: 0%
[33]
  Activity: 0%
[34]
  IC50: 107 nM
[35]
  Activity: 0%
[36]
  IC50: > 16000 nM
[37]
  Activity: 18%
[38]
  Activity: 22%
[39]
  Activity: 9%
[40]
  IC50: 2 nM
Phosphodiesterase 3
  IC50: > 16000 nM
[41]
  Activity: 6%
[42]
  Activity: 1%
[43]
  Activity: 6%
Cynomolgus monkey
  Inhibition: 65%
[44]
  Activity: 22%
[45]
  Activity: 12%
[46]
  Activity: 27%
[47]
  Activity: 14%
[48]
  Activity: 0%
[49]
  Activity: 0%
[50]
  Activity: 12%
[51]
  Activity: 23%
[52]
  IC50: > 16000 nM
[53]
  Activity: 0%
[54]
  IC50: > 16000 nM
[55]
  Activity: 0%
[56]
  IC50: 185 nM
[57]
  Activity: 0%
[58]
  EC50: 22 nM
[59]
  IC50: > 16000 nM
[60]
  Activity: 5%
[61]
  IC50: 925 nM
[62]
  Activity: 0%
[63]
  Activity: 10%
[64]
  Activity: 0%
[65]
  Activity: 25%
